The subject of series [1] is Mycobacterium tuberculosis. The experiment in a line: Antimycobacterial activity against Mycobacterium tuberculosis H37Rv assessed as reduction in log10CFU at 1XMIC measured after 5 to 6 days by time kill assay. As to conditions: time 5-6 day. It is filed as functional, organism-based.
Series [2] is described as follows: Cytotoxicity against African green monkey Vero cells assessed as reduction in cell viability measured after 72 hrs by MTT assay. The class given is toxicity, cell-based. As to conditions: chlorocebus sabaeus. In general terms: Formazan colour is commonly taken as a measure of viable cells.
The test system of series [3] is Mycobacteroides abscessus. The experiment in a line: Antimycobacterial activity against Mycobacterium abscessus ATCC 19977 assessed as inhibition of bacterial growth after 48 hrs by resazurin microtitre assay. It is filed as functional.
The next series relates to Staphylococcus aureus. Nature of the series: Antibacterial activity against Staphylococcus aureus ATCC 29213 assessed as reduction in bacterial growth incubated for 16 to 18 hrs by microtiter plate assay. It is filed as functional. To be noted: time 16-18 hrs.
The next series deals with Pseudomonas aeruginosa. Nature of the series: Antibacterial activity against Pseudomonas aeruginosa ATCC 27853 assessed as reduction in bacterial growth incubated for 16 to 18 hrs by microtiter plate assay. It is filed as functional. To be noted: time 16-18 hrs.
Series [4] relates to Mycobacterium tuberculosis. The experiment in a line: Antimycobacterial activity against Mycobacterium tuberculosis H37Rv ATCC 27294 assessed as inhibition of bacterial growth measured after 7 days by resazurin microtitre assay. The class given is functional. As to conditions: H37Rv ATCC 27294, 168 h, time 7 day.
Series [5] deals with Mycobacterium tuberculosis. The experiment in a line: Antimycobacterial activity against Mycobacterium tuberculosis H37Rv assessed as reduction in log10CFU at 10 X MIC measured after 5 to 6 days by time kill assay. To be noted: time 5-6 day. It is filed as functional, organism-based.
Another series concerns Mycobacteroides chelonae. Nature of the series: Antimycobacterial activity against Mycobacterium chelonae ATCC 6841 assessed as inhibition of bacterial growth after 48 hrs by resazurin microtitre assay. It is filed as functional. (In general: Resazurin is reduced to fluorescent resorufin, in cell work by metabolically active cells.)
The test system of series [6] is Mycolicibacterium fortuitum. Nature of the series: Antimycobacterial activity against Mycobacterium fortuitum ATCC 6841 assessed as inhibition of bacterial growth after 48 hrs by resazurin microtitre assay. The class given is functional.
For the next series, the system named is Escherichia coli. The experiment in a line: Antibacterial activity against Escherichia coli ATCC 25922 assessed as reduction in bacterial growth incubated for 16 to 18 hrs by microtiter plate assay. It is filed as functional. To be noted: time 16-18 hrs.
The subject of a further series is Klebsiella pneumoniae. The experiment in a line: Antibacterial activity against Klebsiella pneumoniae BAA 1705 assessed as reduction in bacterial growth incubated for 16 to 18 hrs by microtiter plate assay. The class given is functional. As to conditions: time 16-18 hrs.
The test system of a further series is Acinetobacter baumannii. The experiment in a line: Antibacterial activity against Acinetobacter baumannii BAA 1605 assessed as reduction in bacterial growth incubated for 16 to 18 hrs by microtiter plate assay. The class given is functional. To be noted: time 16-18 hrs.
A short description of series [7]: Selectivity index, ratio of CC50 for African green monkey Vero cells to MIC for Mycobacterium tuberculosis H37Rv ATCC 27294. To be noted: read-out: Selectivity Index. The class given is toxicity.
Series [8] in a line: Metabolic stability in human liver microsomes assessed as elimination rate constant at 1 uM preincubated for 5 mins in presence of NADPH incubated up to 60 mins by LC-MS/MS analysis. It is filed as ADME, Microsome. As to conditions: time 65 min. For orientation: Microsomes from liver hold many membrane-bound enzymes, among them those of drug oxidation.
The test system of series [9] is Mycobacterium tuberculosis. The experiment in a line: Antimycobacterial activity against Mycobacterium tuberculosis H37Rv assessed as minimum bactericidal concentration by time kill assay. The class given is functional.
A short description of series [10]: Aqueous solubility in phosphate buffer at pH 7.4 incubated for 4 hrs by HPLC analysis. The class given is physicochemical.
Series [11] has as its system Mycobacterium tuberculosis. Nature of the series: Antimycobacterial activity against Mycobacterium tuberculosis H37Rv at 10 X MIC measured after 5 to 7 days by time kill assay. The class given is functional. To be noted: time 5-7 day.
The nature of series [12]: Metabolic stability in human liver microsomes assessed as intrinsic clearance at 1 uM preincubated for 5 mins in presence of NADPH incubated up to 60 mins by LC-MS/MS analysis. The class given is ADME, Microsome. As to conditions: time 65 min, read-out: CLH.
Series [13] is described as follows: Metabolic stability in human liver microsomes assessed as half life at 1 uM preincubated for 5 mins in presence of NADPH incubated up to 60 mins by LC-MS/MS analysis. It is filed as ADME, Microsome. As to conditions: time 65 min.
Series [14] relates to Mycobacterium tuberculosis. The experiment in a line: Antimycobacterial activity against Mycobacterium tuberculosis H37Rv at 1 X MIC measured after 5 to 7 days by time kill assay. It is filed as functional. To be noted: time 5-7 day.

The text below walks through data of ChEMBL document CHEMBL5143690, “Identification of nitrofuranylchalcone tethered benzoxazole-2-amines as potent inhibitors of drug resistant Mycobacterium tuberculosis demonstrating bactericidal efficacy” (Bioorg Med Chem, 2022).

In brackets after ≈: the same amount, converted by molar mass. Activity calls are given as the source filed them. Bounds are passed on as bounds.

In the case of `O=C(/C=C/c1ccc([N+](=O)[O-])o1)c1ccc(Nc2nc3cc([N+](=O)[O-])ccc3o2)cc1`, the result in series [1] and in [5] was Active. The CC50 at 72 h in series [2] was 5 µg/mL (≈ 11.9 µM). Also, the MIC was over 64 µg/mL in [3]; 4 µg/mL (≈ 9.52 µM) with Staphylococcus aureus; over 64 µg/mL in the series on Pseudomonas aeruginosa; 0.03 µg/mL (≈ 0.0714 µM) in series [4]; over 64 µg/mL in the series on Mycobacteroides chelonae; over 64 µg/mL in [6]. For the same molecule, the MIC in the series with Escherichia coli, with Klebsiella pneumoniae and with Acinetobacter baumannii was over 64 µg/mL each time. Further, the selectivity ratio in [7] is over 800.
Turning to `O=C(/C=C/c1ccc([N+](=O)[O-])o1)c1ccc(Nc2nc3ccccc3o2)cc1`, the outcome in series [1] and in series [5] was Active. In [2], the CC50 at 72 h is 5 µg/mL (≈ 13.3 µM). Also, the MIC in series [3] was over 64 µg/mL; in the series with Staphylococcus aureus it was 4 µg/mL (≈ 10.7 µM); in the series on Pseudomonas aeruginosa, over 64 µg/mL; in series [4], 0.12 µg/mL (≈ 0.32 µM); in the series on Mycobacteroides chelonae it was over 64 µg/mL; in series [6], over 64 µg/mL. Further, the MIC with Escherichia coli, in the series on Klebsiella pneumoniae and in the series on Acinetobacter baumannii was over 64 µg/mL in each case. Besides, the selectivity ratio in series [7] worked out at 40.
Consider `O=C(/C=C/c1ccc([N+](=O)[O-])o1)c1ccc(Nc2nc3cc(Cl)ccc3o2)cc1`, for which the k el at 1 h, 1 µM in series [8] was 0.000333 s⁻¹. In addition, the CC50 at 72 h in [2] was 5 µg/mL (≈ 12.2 µM). The MBC in series [9] was 0.03 µg/mL (≈ 0.0732 µM). Besides, in series [10], the solubility at 4 h amounted to 2.5 µg/mL (≈ 6.1 µM). The MIC is over 64 µg/mL in [3]; 4 µg/mL (≈ 9.76 µM) with Staphylococcus aureus; over 64 µg/mL in the series on Pseudomonas aeruginosa; 0.03 µg/mL (≈ 0.0732 µM) in [4]; over 64 µg/mL in the series with Mycobacteroides chelonae; over 64 µg/mL in [6]. Further, the minimal inhibitory concentration (MIC) with Escherichia coli, in the series with Klebsiella pneumoniae and with Acinetobacter baumannii was over 64 µg/mL each time. The Activity in [11] and in [14] was 100% throughout. In series [12], the microsomal CLint at 1 µM was determined as 38.5 µL/min/mg. Besides, the half-life at 1 µM in series [13] came out at 34.6 min. In series [7], the selectivity ratio was 160.
Turning to `CO[C@H]1/C=C/O[C@@]2(C)Oc3c(C)c(O)c4c(O)c(c(/C=N/N5CCN(C)CC5)c(O)c4c3C2=O)NC(=O)/C(C)=C\C=C\[C@H](C)[C@H](O)[C@@H](C)[C@@H](O)[C@@H](C)[C@H](OC(C)=O)[C@@H]1C` [RIFAMPIN], the result in series [1] and in series [5] was Active. The MIC in series [4] is 0.03 µg/mL (≈ 0.0365 µM).
As for `Cc1ccc2oc(Nc3ccc(C(=O)/C=C/c4ccc([N+](=O)[O-])o4)cc3)nc2c1`, the CC50 at 72 h in [2] stood at 5 µg/mL (≈ 12.8 µM). Besides, the minimal inhibitory concentration (MIC) was over 64 µg/mL in [3]; 4 µg/mL (≈ 10.3 µM) in the series with Staphylococcus aureus; over 64 µg/mL with Pseudomonas aeruginosa; 0.06 µg/mL (≈ 0.154 µM) in [4]; over 64 µg/mL with Mycobacteroides chelonae; over 64 µg/mL in series [6]. The minimum inhibitory concentration (MIC) in the series with Escherichia coli, in the series with Klebsiella pneumoniae and in the series on Acinetobacter baumannii was over 64 µg/mL throughout. For the same molecule, the selectivity ratio in series [7] worked out at 80.

One may read the CC50 as the concentration giving 50% cytotoxicity. For orientation: MIC means the smallest concentration in the dilution series that meets the test's criterion for growth inhibition. One may read the MBC as the lowest tested concentration that kills the bacteria rather than only halting them. What is called solubility is the concentration that dissolves in the medium under given conditions. The term half-life denotes how long it takes for the measured level to halve.
